# Test results: patent US10995357B2, “Rapid antimicrobial susceptibility testing based on a unique spectral intensity ratio analysis via single fluorescence membrane dye staining and flow cytometry” (POCARED Diagnostics LTD., priority 2017, dated 2021)
# Read-outs that look alike come from different tables or passages of the source.
# What was measured:
# Format in all cases: cell-based
# [1] = system: 31 positive blood cultures (E. coli, K. pneumonia, A. baummanii, P. mirabilis, E. cloacae, Aeromonass spp., K. oxytoca); assay: Reference macro dilution method, visual growth after 16-20 hours, positive blood cultures; conditions: for Reference Method Susceptibilities I: number of strains intermediate out of 31 positive blood cultures; for Reference Method Susceptibilities R: number of strains resistant out of 31 positive blood cultures; for Reference Method Susceptibilities S: number of strains susceptible out of 31 positive blood cultures
# Method: 31 positive blood cultures were obtained from Sheba Medical Center (Ramat-Gan, Israel) and tested for antimicrobial susceptibility with gentamicin and ampicillin antibiotics (Sigma-Aldrich, USA). A total of 62 positive blood samples-antibiotics combinations were tested. • a) Positive blood samples were received from Sheba Medical Center, 2 ml of each sample were centrifuged for 15 min at 24×g and Supernatants were diluted 1:1000 with Cation-Adjusted Mueller Hinton Broth (CAMHB). • b) Antimicrobial stock solutions were prepared according to CLSI recommendations, and were diluted in CAMHB, to a concentration which was 2 fold higher from the highest concentration recommended for each antimicrobial combination (“Class II Special Controls Guidance Document: Antimicrobial Susceptibility Test (AST) Systems”, Aug. 28, 2009, FDA). • c) For each sample/antimicrobial combination, a set of tubes was prepared for which 1 ml of CAMHB medium was added, except for the first tube. • d) To each first tube of the set, 2 ml from the antimicrobial stock solution (b) was dispensed. • e) From the first tube a serial dilutions of 2 folds were prepared by transferring 1 ml of the solution to the next tube until the lowest required concentration by CLSI. 1 ml was discarded from the last tube in each set of tubes. • f) To each tube in the set, 1 ml of bacterial sample solution (a) was added. • g) For each serial dilutions set, two controls were added. As a negative control, a tube with 2 ml of CAMHB. As a positive control, a tube with bacterial sample solution (a) without antimicrobial agent. • h) All tubes were incubated at 37° C. • i) 2-4 hours from incubation initiation, 200 μl from each tube were transferred into a fresh tube, dyed with 2 μl of Synaptogreen or FM 1-43 (Sigma-Aldrich; Molecular Probes, respectively) and measured by a flow cytometer. The rest of the sample was further incubated for 16-20 hours and then was visually evaluated for growth.
# 62 samples (31 positive blood cultures and 2 antibiotics combination) were analyzed in triplicates. Each sample was measured by the flow cytometer and the MIC was calculated using the spectral intensity ratio (SIR) calculation and step function estimation. The bacteria identified within the samples were; E. coli (15 samples), K. pneumonia (6 samples), A. baummanii (4 samples), P. mirabilis (2 samples), E. cloacae (2 samples), Aeromonass spp. (1 sample), and K. oxytoca (1 sample).
# Tables 1 and 2 present the results of the positive blood sample experiment using the macro dilution as the reference method. […] There are no errors as defined by “Class II Special Controls Guidance Document: Antimicrobial Susceptibility Test (AST) Systems,” Aug. 28, 2009, FDA.
# [2] = system: 30 clinical isolates of E. coli, K. pneumoniae, E. cloacae, P. mirabilis, and C. freundii; assay: Reference macro dilution method, visual growth after 16-20 hours, clinical isolates; conditions: for Reference Method Susceptibilities I: number of strains intermediate out of 30 clinical isolates; for Reference Method Susceptibilities R: number of strains resistant out of 30 clinical isolates; for Reference Method Susceptibilities S: number of strains susceptible out of 30 clinical isolates
# Method: A total of 90 isolates-antibiotics combinations were tested. • a) All strains were cultured onto 5% sheep blood agar (Hylabs, Israel), following overnight incubation, colonies were harvested and suspended in Phosphate Buffer Saline (PBS, Sigma-Aldrich). […] 1 ml was discarded from the last tube in each set of tubes. • g) For each serial dilutions set, two controls were added. As a negative control, a tube with 2 ml of CAMHB. […] The rest of the sample was further incubated for 16-20 hours and then was visually evaluated for growth.
# [3] = system: E. coli; assay: Rapid AST/MIC by spectral intensity ratio (SIR), FM 1-43 staining and flow cytometry, directly from positive blood culture; conditions: E. coli strain from positive blood culture; scatter plot unchanged at high antibiotic concentrations
# Method: (§1) In general, the method includes; blood culture centrifugation, bacterial antimicrobial exposure for 2 to 4 hours, bacteria staining with a single fluorescence dye followed by a flow cytometric measurement, and mathematical analysis.
# (§2) 31 positive blood cultures were obtained from Sheba Medical Center (Ramat-Gan, Israel) and tested for antimicrobial susceptibility with gentamicin and ampicillin antibiotics (Sigma-Aldrich, USA). A total of 62 positive blood samples-antibiotics combinations were tested. • a) Positive blood samples were received from Sheba Medical Center, 2 ml of each sample were centrifuged for 15 min at 24×g and Supernatants were diluted 1:1000 with Cation-Adjusted Mueller Hinton Broth (CAMHB). • b) Antimicrobial stock solutions were prepared according to CLSI recommendations, and were diluted in CAMHB, to a concentration which was 2 fold higher from the highest concentration recommended for each antimicrobial combination (“Class II Special Controls Guidance Document: Antimicrobial Susceptibility Test (AST) Systems”, Aug. […] As a positive control, a tube with bacterial sample solution (a) without antimicrobial agent. • h) All tubes were incubated at 37° C. • i) 2-4 hours from incubation initiation, 200 μl from each tube were transferred into a fresh tube, dyed with 2 μl of Synaptogreen or FM 1-43 (Sigma-Aldrich; Molecular Probes, respectively) and measured by a flow cytometer. The rest of the sample was further incubated for 16-20 hours and then was visually evaluated for growth.
# (§3) In order to quantify the influence of a certain antimicrobial exposure we define the spectral intensity ratio (SIR) as follows: […]
# (§4) The MIC is calculated by plotting the spectral intensity ratio (SIR) as a function of the antimicrobial concentration and approximating it to a step function in the form of […]
# [4] = system: K. pneumonia; assay: as above; conditions: 2-4 hours antibiotic exposure, SIR step function fit
# Method: as §1, §2, §3, §4
# [5] = system: E. coli; assay: Rapid AST/MIC by spectral intensity ratio (SIR), FM 1-43 staining and flow cytometry, from clinical isolates; conditions: E. coli clinical isolate; 2-4 hours antibiotic exposure; SIR step function fit
# Method: (§5) Our method includes bacterial antimicrobial treatment for 2 to 4 hours, bacteria staining with a single fluorescence dye followed by a flow cytometric measurement, and mathematical analysis. The following paragraphs describe the method in details.
# (§6) A total of 90 isolates-antibiotics combinations were tested. • a) All strains were cultured onto 5% sheep blood agar (Hylabs, Israel), following overnight incubation, colonies were harvested and suspended in Phosphate Buffer Saline (PBS, Sigma-Aldrich). […] The rest of the sample was further incubated for 16-20 hours and then was visually evaluated for growth.
# (§7) In order to quantify the influence of a certain antimicrobial treatment, we define the spectral intensity ratio (SIR) as follows: […]
# (§8) The MIC is calculated by plotting the spectral intensity ratio (SIR) as a function of the antimicrobial concentration and approximating it to a step function in the form of
# (§9) Where a, b, and c are parameters and erf is the error function. The parameters are used to approximate the measured SIR to a step function; a is a scaling parameter, b determines the step slope, and c is the MIC value. […]
# [6] = system: C. freundii; assay: as above; conditions: C. freundii clinical isolate; up to 32 μg/ml; SIR almost constant
# Method: as §5, §6, §7, §8, §9
compound,measurement,setting,value
"CC1(C)S[C@@H]2[C@H](NC(=O)[C@H](N)c3ccccc3)C(=O)N2[C@H]1C(=O)O [Ampicillin, ampicillin]",Reference Method Susceptibilities I,[1],0
same,Reference Method Susceptibilities R,[1],26
same,Reference Method Susceptibilities S,[1],5
same,Reference Method Susceptibilities I,[2],5
same,Reference Method Susceptibilities R,[2],9
same,Reference Method Susceptibilities S,[2],16
same,Susceptibility (SIR as a function of antibiotic concentration),[3],resistant
same,MIC,"[4]; Klebsiella pneumoniae, read-out: MIC",4 µg/mL
gentamicin,MIC,[5],2 µg/mL
same,Susceptibility (SIR as a function of antibiotic concentration),[6],resistant
same,Reference Method Susceptibilities I,[1],0
same,Reference Method Susceptibilities R,[1],10
same,Reference Method Susceptibilities S,[1],21
same,Reference Method Susceptibilities I,[2],4
same,Reference Method Susceptibilities R,[2],5
same,Reference Method Susceptibilities S,[2],21
same,MIC,[4],1 µg/mL
